Results: patent publication US20130165368A1, “ANTIMICROBIAL COMPOUNDS” (priority 2010, published 2013)
Converted amounts (≈) assume the structure as drawn. Where two headings read alike, the source gives them in different places.

Legend:
Format in all cases: cell-based
Escherichia coli = assay: MIC agar dilution, micro-organism 1 (10418); conditions: Escherichia coli 10418
Method in brief: (§1)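 Agar dilution in Isosensitest/CCEY agar with egg yolk and lysed horse blood; compounds as aqueous emulsions (myristyl and lauryl alcohol with 1-methyl-2-pyrrolidone and Tween 20). 1 µL spots of 1/15-diluted 0.5 McFarland suspensions, 37 °C aerobic, read at 22 and 48 h; MIC (mmol/L) is lowest concentration giving <10 colonies.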

[1] = system: Staphylococcus epidermidis; assay: MIC agar dilution, micro-organism 14 (11047); conditions: Staphylococcus epidermidis 11047
Method in brief: as §1

Staphylococcus aureus = assay: MIC agar dilution, micro-organism 13 (6571); conditions: Staphylococcus aureus 6571
Method in brief: as §1

Enterococcus faecium = assay: MIC agar dilution, micro-organism 16 (7171); conditions: Enterococcus faecium 7171
Method in brief: as §1

Candida glabrata = assay: MIC agar dilution, micro-organism 20 (3943); conditions: Candida glabrata 3943
Method in brief: as §1

MRSA EMRSA 15 1729/98 = assay: MIC agar dilution, MRSA strain 42; conditions: Staphylococcus aureus
Experimental: (§2) Molar equivalent concentrations were used to allow comparison between compounds of differing molecular mass. Due to weighing difficulties, any compound in solid form was melted in a water bath prior to dilution. To make ten-times strength concentrations, which takes into account agar dilution, 0.0352 mmol of each compound was weighed into plastic universal bottles and 4 mL of sterile distilled water (SDW) was added. To produce a homogenous emulsion the universals were vortexed; once achieved the emulsions were serial diluted by adding 2 mL to 2 mL of SDW.
(§3) For every 100 mL of Isosensitest agar (IST) (CM0471; Oxoid, Basingstoke, England), 3.1 g of the IST powder was added to 100 mL SDW (as per manufacturer's instructions) and sterilised for 15 minutes at 121° C. Once sterilised, the molten agar was cooled to 50° C. in a water-bath. Subsequently 4.8 g of CCEY powder (BC2160; Bioconnections, Wetherby, England), also known as Brazier's medium, was added to 100 mL SDW for every 100 mL of agar needed. This was then sterilised for 15 minutes at 121° C. Once sterilised the molten agar was cooled to 50° C. in a water-bath and 4 mL of egg-yolk emulsion (S2073; TCS Biosciences Ltd, Buckingham, United Kingdom) and 1 mL of lysed defibrinated horse blood (HB035; TCS Biosciences Ltd, Buckingham, United Kingdom) were also added for every 100 mL needed. Horse blood lysis is achieved by dilution to half concentration with SDW; when fully lysed the mixture will turn dark red in colour.
(§4) 18 mL agar was added to each universal and then poured into sterile Petri dishes. This step creates a 1/10 dilution resulting in agar plates of the required strength. Control plates for each set of strains were created by adding 18 mL of agar to 2 mL of SDW.
(§5) Suspensions of each bacterial species were prepared with a density equal to that of a 0.5 McFarland standard using a densitometer. All suspensions were made using sterile distilled water and fresh 18-20 hour cultures. As a 0.5 McFarland standard contains 1.5×10^8 CFU/mL and the multipoint inoculators applies 1 μL spots of liquid, each bacterial suspension was diluted 1/15 (20 μL suspension to 280 μL sterile distilled water).
(§6) Bacterial suspensions were prepared from fresh 18-24 hour cultures as previously described. 1 μL of each strain was inoculated onto all 100 agar plates containing a different chemical concentration and the 2 control plates. This was done using a multipoint inoculator which inoculates 20 strains per plate. All plates were incubated for 22 hours at 37° C. in aerobic conditions.
(§7) Each plate was examined for bacterial growth after 22 and 48 hours, with each being incubated in between examinations. A positive result was recorded as growth of ≧10 colonies. A negative result was recorded as growth of <10 colonies as this is equivalent to 99.9% inhibition. The lowest concentration of chemical that inhibited growth was recorded as the MIC. The results are recorded in Table IV below, where the numbers are quoted in mmol/L.
(§8) Given the positive performance of the ethoxylates of lauryl alcohol in reducing the MIC for a number of the micro-organisms tested, further MIC testing of Laureth-1 [C12E1] through to Laureth-8 [C12E8] was conducted on each of the following: • 10 strains of vancomycin-resistant enterococci (VRE)—listed in Table V below; and • 20 strains of methicillin-resistant Staphylococcus aureus (MRSA)—listed in Table VI.
(§9) The alkanol, alkanol derivatives, agar plates, and inocula were all prepared in the same way as described above.
(§10) The plates were examined in the same manner as described above and the results are recorded in Table VII below, where the numbers are quoted in mmol/L.

[2] = system: Enterococcus faecalis (VRE) PHLS URINE 2000; assay: MIC agar dilution, VRE strain 21
Experimental: as §2, §3, §4, §5, §6, §7, §8, §9, §10

MRSA EMRSA 15 19972/98 = assay: MIC agar dilution, MRSA strain 39; conditions: Staphylococcus aureus
Experimental: as §2, §3, §4, §5, §6, §7, §8, §9, §10

[3] = system: MRSA GER 131/98 (Sger Iidc); assay: MIC agar dilution, MRSA strain 35; conditions: Staphylococcus aureus
Experimental: as §2, §3, §4, §5, §6, §7, §8, §9, §10

[4] = system: MRSA GER 1966/97 (Hanover IIIc); assay: MIC agar dilution, MRSA strain 36; conditions: Staphylococcus aureus
Experimental: as §2, §3, §4, §5, §6, §7, §8, §9, §10

MRSA EMRSA 16 07924/95 = assay: MIC agar dilution, MRSA strain 49; conditions: Staphylococcus aureus
Experimental: as §2, §3, §4, §5, §6, §7, §8, §9, §10

MRSA EMRSA 15 1758/98 = assay: MIC agar dilution, MRSA strain 43; conditions: Staphylococcus aureus
Experimental: as §2, §3, §4, §5, §6, §7, §8, §9, §10

MRSA EMRSA 16 00998/95 = assay: MIC agar dilution, MRSA strain 47; conditions: Staphylococcus aureus
Experimental: as §2, §3, §4, §5, §6, §7, §8, §9, §10

[5] = Staphylococcus aureus, 22 h, 22 hrs, read-out: MIC
[6] = Staphylococcus aureus, 48 h, 48 hrs, read-out: MIC
[7] = Nakaseomyces glabratus, 22 h, 22 hrs, read-out: MIC
[8] = Nakaseomyces glabratus, 48 h, 48 hrs, read-out: MIC

Row | MIC (Escherichia coli; 22 hrs, read-out: MIC) [µM] | MIC (Escherichia coli; 48 hrs, read-out: MIC) [µM] | MIC ([1]; 22 hrs, read-out: MIC) [µM] | MIC ([1]; 48 hrs, read-out: MIC) [µM] | MIC (Staphylococcus aureus; [5]) [µM] | MIC (Staphylococcus aureus; [6]) [µM] | MIC (Enterococcus faecium; 22 hrs, read-out: MIC) [µM] | MIC (Enterococcus faecium; 48 hrs, read-out: MIC) [µM] | MIC (Candida glabrata; [7]) [µM] | MIC (Candida glabrata; [8]) [µM] | Structure (SMILES) | MIC (MRSA EMRSA 15 1729/98; 22 hrs) [µM] | MIC (MRSA EMRSA 15 1729/98; 48 hrs) [µM] | MIC ([2]; 22 hrs) [µM] | MIC ([2]; 48 hrs) [µM] | MIC (MRSA EMRSA 15 19972/98; 22 hrs) [µM] | MIC (MRSA EMRSA 15 19972/98; 48 hrs) [µM] | MIC ([3]; 22 hrs) [µM] | MIC ([3]; 48 hrs) [µM] | MIC ([4]; 22 hrs) [µM] | MIC ([4]; 48 hrs) [µM] | further results
1 | > 880 | > 880 | > 880 | > 880 | > 880 | > 880 | > 880 | > 880 | 880 (≈ 213 µg/mL) | > 880 | CCCCCCCCCCCCCCCCO [C0, 1-Hexadecanol, reference compound] |  |  |  |  |  |  |  |  |  |  | 
2 |  |  |  |  |  |  |  |  |  |  | CCCCCCCCCCCCCOCCOCCOCCOCCOCCOCCO [C13E6, polyoxyethylene (6) tridecyl alcohol] |  |  |  |  |  |  |  |  |  |  | MIC (Escherichia coli; 22 hrs): >880 µM; MIC (Escherichia coli; 48 hrs): >880 µM; MIC ([1]; 22 hrs): 110 µM (≈ 51.1 µg/mL); MIC ([1]; 48 hrs): 110 µM (≈ 51.1 µg/mL); MIC (Staphylococcus aureus; 22 hrs): 110 µM (≈ 51.1 µg/mL); MIC (Staphylococcus aureus; 48 hrs): 110 µM (≈ 51.1 µg/mL); MIC (Enterococcus faecium; 22 hrs): >880 µM; MIC (Enterococcus faecium; 48 hrs): >880 µM; MIC (Candida glabrata; 22 hrs): >880 µM; MIC (Candida glabrata; 48 hrs): >880 µM
3 | > 880 | > 880 | 110 (≈ 30.2 µg/mL) | 110 (≈ 30.2 µg/mL) | 110 (≈ 30.2 µg/mL) | 110 (≈ 30.2 µg/mL) | > 880 | > 880 | 110 (≈ 30.2 µg/mL) | 110 (≈ 30.2 µg/mL) | CCCCCCCCCCCCOCCOCCO [L2, Diethylene Glycol Monododecyl Ether] | 110 (≈ 30.2 µg/mL) | 110 (≈ 30.2 µg/mL) | 220 (≈ 60.4 µg/mL) | 220 (≈ 60.4 µg/mL) | 110 (≈ 30.2 µg/mL) | 110 (≈ 30.2 µg/mL) | 220 (≈ 60.4 µg/mL) | 220 (≈ 60.4 µg/mL) | 110 (≈ 30.2 µg/mL) | 110 (≈ 30.2 µg/mL) | MIC (MRSA EMRSA 16 07924/95; 22 hrs): 110 µM (≈ 30.2 µg/mL); MIC (MRSA EMRSA 16 07924/95; 48 hrs): 110 µM (≈ 30.2 µg/mL); MIC (MRSA EMRSA 15 1758/98; 22 hrs): 110 µM (≈ 30.2 µg/mL); MIC (MRSA EMRSA 15 1758/98; 48 hrs): 110 µM (≈ 30.2 µg/mL); MIC (MRSA EMRSA 16 00998/95; 22 hrs): 110 µM (≈ 30.2 µg/mL); MIC (MRSA EMRSA 16 00998/95; 48 hrs): 110 µM (≈ 30.2 µg/mL)

Row | Structure (SMILES) | MIC (Escherichia coli; 22 hrs, read-out: MIC) [µM] | MIC (Escherichia coli; 48 hrs, read-out: MIC) [µM] | MIC ([1]; 22 hrs, read-out: MIC) [µM] | MIC ([1]; 48 hrs, read-out: MIC) [µM] | MIC (Staphylococcus aureus; [5]) [µM] | MIC (Staphylococcus aureus; [6]) [µM] | MIC (Enterococcus faecium; 22 hrs, read-out: MIC) [µM] | MIC (Enterococcus faecium; 48 hrs, read-out: MIC) [µM] | MIC (Candida glabrata; [7]) [µM] | MIC (Candida glabrata; [8]) [µM] | MIC (MRSA EMRSA 15 1729/98; 22 hrs) [µM] | MIC (MRSA EMRSA 15 1729/98; 48 hrs) [µM] | MIC ([2]; 22 hrs) [µM] | MIC ([2]; 48 hrs) [µM] | MIC (MRSA EMRSA 15 19972/98; 22 hrs) [µM] | MIC (MRSA EMRSA 15 19972/98; 48 hrs) [µM] | MIC ([3]; 22 hrs) [µM] | MIC ([3]; 48 hrs) [µM] | MIC ([4]; 22 hrs) [µM] | MIC ([4]; 48 hrs) [µM] | further results
4 | CCCCCCCCCCCCOCCO [L1, Ethylene Glycol Monododecyl Ether] | 220 (≈ 50.7 µg/mL) | 220 (≈ 50.7 µg/mL) | 220 (≈ 50.7 µg/mL) | 220 (≈ 50.7 µg/mL) | 220 (≈ 50.7 µg/mL) | 220 (≈ 50.7 µg/mL) | > 880 | > 880 | 220 (≈ 50.7 µg/mL) | 220 (≈ 50.7 µg/mL) | 220 (≈ 50.7 µg/mL) | 220 (≈ 50.7 µg/mL) | 220 (≈ 50.7 µg/mL) | 220 (≈ 50.7 µg/mL) | 220 (≈ 50.7 µg/mL) | 220 (≈ 50.7 µg/mL) | 220 (≈ 50.7 µg/mL) | 220 (≈ 50.7 µg/mL) | 220 (≈ 50.7 µg/mL) | 220 (≈ 50.7 µg/mL) | MIC (MRSA EMRSA 16 07924/95; 22 hrs): 220 µM (≈ 50.7 µg/mL); MIC (MRSA EMRSA 16 07924/95; 48 hrs): 220 µM (≈ 50.7 µg/mL); MIC (MRSA EMRSA 15 1758/98; 22 hrs): 220 µM (≈ 50.7 µg/mL); MIC (MRSA EMRSA 15 1758/98; 48 hrs): 220 µM (≈ 50.7 µg/mL); MIC (MRSA EMRSA 16 00998/95; 22 hrs): 220 µM (≈ 50.7 µg/mL); MIC (MRSA EMRSA 16 00998/95; 48 hrs): 220 µM (≈ 50.7 µg/mL)
